Measured values published in US20130040912A1, “PIPERAZINOTRIAZINES AS PI3K INHIBITORS FOR USE IN THE TREATMENT ANTIPROLIFERATIVE DISORDERS” (UNIVERSITY OF BASEL, priority 2010, published 2013).
Like-named read-outs stand apart in the source and are kept apart here.

Experiments:
[1] = system: melanoma cell line A2058; experiment: in cell Western inhibition assay on melanoma cell line A2058; type: cell-based; conditions: Homo sapiens, the smaller the value, the stronger the inhibition
Protocol: (§1) The inhibitor efficacy and the cell permeability of the compounds of the invention are measured by in cell Western inhibition assay on melanoma cell line A2058 and TSC2−/− MEFs cell line. Furthermore, in vitro PI3Kalpha inhibition is measured (Table 1).

[2] = biological target: PI3Kalpha (Homo sapiens, UniProt P42336); experiment: in vitro PI3Kalpha inhibition, Kinase Glo assay; type: biochemical; conditions: for remaining activity at 0.2 µM: Kinase Glo assay at 200 nM, % remaining activity, the smaller the value, the stronger the inhibition, read-out: In vitro PI3Kα, % remaining activity; for inhibitor activity against PI3K (in words): compared with ZSTK474 (4)
Protocol: as §1

[3] = system: TSC2-/- MEFs cell line; experiment: in cell Western inhibition assay on TSC2-/- MEFs cell line; type: cell-based; conditions: for activity at 1 µM: in cell Western, the smaller the value, the stronger the inhibition, read-out: TSC2-/- MEFs cell inhibition pS6, % remaining activity; for selectivity to mTOR (in words): compared with ZSTK474 (4)
Protocol: as §1

[4] = biological target: PI3Kgamma isoform (Homo sapiens, UniProt P48736); experiment: fluorescence correlation spectroscopy binding to PI3Kgamma; conditions: binding leads to an increase in diffusion time
Protocol: Fluorophore containing compound 13 can be used as a reference inhibitor by fluorescence correlation spectroscopy experiments in which the binding constants of novel inhibitors are determined. […] When the enzyme is saturated with compound 13, new possible ligands can be tested by observing the release of compound 13. This leads to a decrease in diffusion time.

[5] = read-out: A2058 cell inhibition pPKB/PKB, % remaining activity
[6] = read-out: A2058 cell inhibition pS6, % remaining activity

Chain of PI3Kalpha (P42336 whole entry, species assumed): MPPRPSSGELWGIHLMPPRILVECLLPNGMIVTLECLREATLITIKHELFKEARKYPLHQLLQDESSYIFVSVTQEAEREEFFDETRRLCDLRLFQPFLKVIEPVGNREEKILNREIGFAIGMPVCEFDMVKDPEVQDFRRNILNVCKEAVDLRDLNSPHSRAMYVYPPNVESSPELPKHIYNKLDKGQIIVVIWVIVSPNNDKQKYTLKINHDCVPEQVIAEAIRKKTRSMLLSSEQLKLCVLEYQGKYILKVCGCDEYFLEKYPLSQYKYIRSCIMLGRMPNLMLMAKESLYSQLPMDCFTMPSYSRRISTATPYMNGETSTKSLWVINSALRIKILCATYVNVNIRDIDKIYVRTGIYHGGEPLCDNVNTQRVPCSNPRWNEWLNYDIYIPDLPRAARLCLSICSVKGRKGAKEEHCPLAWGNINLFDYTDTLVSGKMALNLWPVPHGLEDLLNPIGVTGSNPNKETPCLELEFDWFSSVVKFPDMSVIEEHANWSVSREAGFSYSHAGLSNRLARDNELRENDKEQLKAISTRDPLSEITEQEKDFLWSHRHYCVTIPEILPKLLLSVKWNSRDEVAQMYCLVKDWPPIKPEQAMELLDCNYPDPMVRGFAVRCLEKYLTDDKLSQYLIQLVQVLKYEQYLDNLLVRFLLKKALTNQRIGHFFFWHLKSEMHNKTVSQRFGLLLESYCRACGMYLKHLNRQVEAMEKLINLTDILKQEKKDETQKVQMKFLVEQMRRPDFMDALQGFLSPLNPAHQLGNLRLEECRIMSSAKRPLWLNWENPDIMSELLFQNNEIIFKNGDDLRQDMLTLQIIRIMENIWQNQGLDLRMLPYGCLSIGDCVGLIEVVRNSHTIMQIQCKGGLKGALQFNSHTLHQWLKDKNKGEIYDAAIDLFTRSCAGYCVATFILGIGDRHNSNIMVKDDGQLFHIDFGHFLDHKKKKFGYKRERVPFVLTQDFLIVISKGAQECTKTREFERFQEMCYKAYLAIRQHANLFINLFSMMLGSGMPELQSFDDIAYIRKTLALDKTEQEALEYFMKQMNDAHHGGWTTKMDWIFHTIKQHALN
Chain of PI3Kalpha (P27986 whole entry partner, species assumed): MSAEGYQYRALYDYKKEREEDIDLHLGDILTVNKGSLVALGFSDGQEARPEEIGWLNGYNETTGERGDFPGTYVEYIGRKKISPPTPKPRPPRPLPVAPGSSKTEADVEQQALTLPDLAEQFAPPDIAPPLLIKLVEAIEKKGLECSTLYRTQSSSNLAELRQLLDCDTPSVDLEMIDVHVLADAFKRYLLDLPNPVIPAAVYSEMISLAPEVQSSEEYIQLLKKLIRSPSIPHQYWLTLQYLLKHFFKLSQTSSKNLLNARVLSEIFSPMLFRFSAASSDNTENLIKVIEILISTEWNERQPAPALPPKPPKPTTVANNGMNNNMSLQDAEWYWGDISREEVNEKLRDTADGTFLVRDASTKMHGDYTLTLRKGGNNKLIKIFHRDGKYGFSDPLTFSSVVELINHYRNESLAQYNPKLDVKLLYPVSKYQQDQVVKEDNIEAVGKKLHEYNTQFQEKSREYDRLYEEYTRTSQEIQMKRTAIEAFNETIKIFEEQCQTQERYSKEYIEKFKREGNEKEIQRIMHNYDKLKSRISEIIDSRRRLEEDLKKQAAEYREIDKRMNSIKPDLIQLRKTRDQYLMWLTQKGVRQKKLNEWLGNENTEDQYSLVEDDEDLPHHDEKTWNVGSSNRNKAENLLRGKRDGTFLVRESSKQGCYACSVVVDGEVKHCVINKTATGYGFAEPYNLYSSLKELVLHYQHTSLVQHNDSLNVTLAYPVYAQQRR
Chain of PI3Kgamma isoform (P48736 whole entry, the tested form may be a part, canonical isoform): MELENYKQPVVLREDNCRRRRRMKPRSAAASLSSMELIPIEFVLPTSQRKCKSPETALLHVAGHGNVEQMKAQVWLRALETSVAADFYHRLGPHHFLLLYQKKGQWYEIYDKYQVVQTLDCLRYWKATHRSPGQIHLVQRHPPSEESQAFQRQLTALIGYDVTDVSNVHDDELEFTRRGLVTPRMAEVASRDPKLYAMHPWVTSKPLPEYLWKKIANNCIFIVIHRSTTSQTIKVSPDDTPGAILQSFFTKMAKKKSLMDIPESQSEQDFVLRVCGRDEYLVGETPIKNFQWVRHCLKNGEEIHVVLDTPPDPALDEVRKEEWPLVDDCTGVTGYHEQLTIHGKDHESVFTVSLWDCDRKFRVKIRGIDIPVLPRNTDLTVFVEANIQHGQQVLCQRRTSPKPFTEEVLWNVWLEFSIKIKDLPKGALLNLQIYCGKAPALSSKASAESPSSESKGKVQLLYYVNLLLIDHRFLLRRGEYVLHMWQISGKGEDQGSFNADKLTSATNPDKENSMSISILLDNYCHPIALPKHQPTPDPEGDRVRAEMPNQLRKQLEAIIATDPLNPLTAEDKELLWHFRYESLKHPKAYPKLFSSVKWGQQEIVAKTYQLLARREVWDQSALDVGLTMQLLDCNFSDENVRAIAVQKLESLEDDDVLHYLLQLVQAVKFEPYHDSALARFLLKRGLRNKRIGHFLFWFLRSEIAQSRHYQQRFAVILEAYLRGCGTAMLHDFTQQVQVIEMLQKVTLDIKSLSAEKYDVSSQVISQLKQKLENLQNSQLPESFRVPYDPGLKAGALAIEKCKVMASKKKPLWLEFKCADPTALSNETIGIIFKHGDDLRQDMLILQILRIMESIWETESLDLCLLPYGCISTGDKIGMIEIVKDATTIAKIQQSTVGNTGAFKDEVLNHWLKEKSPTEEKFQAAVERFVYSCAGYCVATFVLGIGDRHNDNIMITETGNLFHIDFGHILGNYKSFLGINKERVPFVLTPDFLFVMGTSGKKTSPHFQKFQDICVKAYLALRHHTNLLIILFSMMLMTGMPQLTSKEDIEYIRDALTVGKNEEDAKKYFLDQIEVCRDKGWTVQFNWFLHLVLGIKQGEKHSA

| remaining activity at 0.2 µM [2] [%] | binding to PI3Kgamma isoform (in words) [4] | Structure (SMILES) | activity at 1 µM [1, 5] [%] | activity at 1 µM [1, 6] [%] | activity at 1 µM [3] [%] | activity (in words) [2] | inhibitor activity against PI3K (in words) [2] | selectivity to mTOR (in words) [3] |
| --- | --- | --- | --- | --- | --- | --- | --- | --- |
| 13 |  | FC(F)c1nc2ccccc2n1-c1nc(N2CCOCC2)nc(N2CCOCC2)n1 [Compound 4, 4,4′-(6-(2-(Difluoromethyl)-1H-benzo[d]imidazol-1-yl)-1,3,5-triazine-2,4-diyl)dimorpholine, reference compound] | 3.63 ± 1.1 | 22.5 ± 0.13 | 37.9 ± 4.21 |  |  |  |
| 33 |  | CN1CCN(c2nc(N3CCOCC3)nc(-n3c(C(F)F)nc4ccccc43)n2)CC1 [Compound 5, 4-(4-(2-(Difluoromethyl)-1H-benzo[d]imidazol-1-yl)-6-(4-methylpiperazin-1-yl)-1,3,5-triazin-2-yl)morpholine] | 4.13 ± 0.37 | 18.5 ± 1.7 | 67.3 ± 1.26 | substantially more active than compound 17 | Increasing of inhibitor activity against PI3K | diminishing of selectivity to mTOR |
| 35 |  | CCS(=O)(=O)N1CCN(c2nc(N3CCOCC3)nc(-n3c(C(F)F)nc4ccccc43)n2)CC1 [Compound 7, 4-(4-(2-(Difluoromethyl)-1H-benzo[d]imidazol-1-yl)-6-(4-(ethylsulfonyl)piperazin-1-yl)-1,3,5-triazin-2-yl)morpholine] | 30.7 ± 1.08 | 56.7 ± 10.6 | 104 ± 4.27 |  | slightly decreased | notable reduced |
| 8 |  | C=CC(=O)N1CCN(c2nc(N3CCOCC3)nc(-n3c(C(F)F)nc4ccccc43)n2)CC1 [Compound 8, 1-(4-(4-(2-(Difluoromethyl)-1H-benzo[d]imidazol-1-yl)-6-morpholino-1,3,5-triazin-2-yl)piperazin-1-yl)prop-2-en-1-one] | 13 ± 0.01 | 23 ± 4.22 | 95 ± 7.44 |  |  |  |
| 50 |  | NCCN1CCN(c2nc(N3CCOCC3)nc(-n3c(C(F)F)nc4ccccc43)n2)CC1 [Compound 9, 2-(4-(4-(2-(Difluoromethyl)-1H-benzo[d]imidazol-1-yl)-6-morpholino-1,3,5-triazin-2-yl)piperazin-1-yl)ethanamine] | 16.5 ± 0.24 | 30.9 ± 4.06 | 89.9 ± 9.5 |  |  |  |
| 20 |  | C=CC(=O)NCCN1CCN(c2nc(N3CCOCC3)nc(-n3c(C(F)F)nc4ccccc43)n2)CC1 [Compound 10, N-(2-(4-(4-(2-(Difluoromethyl)-1H-benzo[d]imidazol-1-yl)-6-morpholino-1,3,5-triazin-2-yl)piperazin-1-yl)ethyl)acrylamide] | 3.99 ± 1.18 | 12.7 ± 1.69 | 74.5 ± 5.9 |  |  |  |
| 45 |  | CCCCCCN1CCN(c2nc(N3CCOCC3)nc(-n3c(C(F)F)nc4ccccc43)n2)CC1 [Compound 11, 4-(4-(2-(Difluoromethyl)-1H-benzo[d]imidazol-1-yl)-6-(4-hexylpiperazin-1-yl)-1,3,5-triazin-2-yl)morpholine] | 85.2 ± 3.71 | 74 ± 10.3 | 85.7 ± 5.71 |  |  |  |
| 42 |  | CCOCCN1CCN(c2nc(N3CCOCC3)nc(-n3c(C(F)F)nc4ccccc43)n2)CC1 [Compound 12, 4-(4-(2-(Difluoromethyl)-1H-benzo[d]imidazol-1-yl)-6-(4-(2-ethoxyethyl)piperazin-1-yl)-1,3,5-triazin-2-yl)morpholine] | 15.9 ± 2.46 | 24.4 ± 4.34 | 77.1 ± 4.62 |  |  |  |
| 13 | binds to the PI3Kgamma isoform | O=C(CCCCCNC(=O)COc1ccc(/C=C/C2=[N+]3C(=Cc4ccc(-c5cccs5)n4[B-]3(F)F)C=C2)cc1)NCCN1CCN(c2nc(N3CCOCC3)nc(-n3c(C(F)F)nc4ccccc43)n2)CC1 [Compound 13, (E)-3-(4-(2-((6-((2-(4-(4-(2-(Difluoromethyl)-1H-benzo[d]imidazol-1-yl)-6-morpholino-1,3,5-triazin-2-yl)piperazin-1-yl)ethyl)amino)-6-oxohexyl)amino)-2-oxoethoxy)styryl)-5,5-difluoro-7-(thiophen-2-yl)-5H-dipyrrolo[1,2-c:2′,1′-f][1,3,2]diazaborinin-4-ium-5-uide] | 47.5 ± 5.48 | 57.3 ± 6.86 | 95.5 ± 9.81 | active |  |  |
| 83 |  | CN1CCN(c2nc(N3CCOCC3)nc(-n3cnc4ccccc43)n2)CC1 [Compound 17, reference compound] | 122 ± 2.58 | 83 ± 3.31 | 123 ± 5.78 |  |  |  |
